{"source": "paper PMC10507807", "about": "“De novo design of a stapled peptide targeting SARS-CoV-2 spike protein receptor-binding domain” (RSC Medicinal Chemistry, 2023)", "key": {"[1]": {"system": "Vero E6 cells", "conditions": "MTT, 0.05–50 μM pep39, 48 h"}, "[2]": {"system": "SARS-CoV-2 spike protein RBD", "type": "binding"}}, "note": "Starred links: 1 amine or outer side, 2 acyl side, 3 side chain; linkers in the order of their positions; H or OH if unused. Positions of bridges follow the written chain, without caps; N, C: chain ends. Non-standard residues stand in square brackets, D forms with d. Residues, ends and D or L forms follow the SMILES beside them. X1 = C[C@@](CC=[*:3])(N[*:1])C(=O)[*:2]"}
{"molecule": "CSCC[C@@H]1NC(=O)[C@H](CC(N)=O)NC(=O)[C@@H]2CC(=O)NCCCC[C@H](NC(=O)[C@H](Cc3c[nH]c4ccccc34)NC(=O)[C@@H](NC(=O)[C@H](CCCCN)NC(=O)[C@H](Cc3ccc(O)cc3)NC(=O)[C@H](CC(C)C)NC(=O)[C@H](Cc3c[nH]c4ccccc34)NC(=O)[C@H](CCC(=O)O)NC(=O)[C@@H](NC(=O)CNC(C)=O)[C@@H](C)O)C(C)C)C(=O)N[C@@H](C)C(=O)N[C@@H](Cc3ccccc3)C(=O)N[C@@](C)(C/C=C/C[C@@](C)(C(=O)O)NC1=O)C(=O)N2", "note": "[pep39] (Ac-GTEWLYKVWKAF[X1]DNM[X1]-OH; lactam 10-14; staple (E) 13-17)", "values": [{"measurement": "concentration at which significant inhibition of cell growth was observed", "setting": "[1]; P < 0.05 vs PBS", "result": "≥ 50", "unit": "µM"}, {"measurement": "concentration above which cell growth is dose dependently inhibited", "setting": "[1]; vs PBS", "result": "higher than 0.5 μM"}, {"measurement": "confirmation of binding to spike protein RBD", "setting": "[2]", "result": "able to confirm the binding of pep39 on the surface of the spike protein RBD"}, {"measurement": "maximum micro-cantilever deflection", "setting": "[2]; pH 7.4", "result": 33.27, "unit": "nm"}, {"measurement": "minimum micro-cantilever deflection", "setting": "[2]; pH 7.4", "result": 8.46, "unit": "nm"}]}
